Measured values taken from patent US7015228B2, “4-amino-2-(2-pyridyl)pyrimidines as microbicidal active substances” (Ciba Specialty Chemicals Corporation, priority 2001, dated 2006).
≈ marks a conversion by molar mass, not a printed value. Read-outs that look alike come from different tables or passages of the source.

Legend:
Format in all cases: cell-based
[1] = system: Enterococcus hirae ATCC 10541; test: Minimum inhibitory concentration (MIC), further microorganisms; details: Table 8, * = significant inhibition of growth, but not complete inhibition; for MIC: Enterococcus hirae, ATCC10541
Description: (§1) Determination of the Minimum Inhibitory Concentration (MIC Value) in Microtitre Plates
(§2) Casein-soybean flour-peptone broth for preparation of pre-cultures of test bacteria and yeast.
(§3) Mycological slant agar for the pre-culture of moulds
(§4) The test substances are pre-dissolved in dimethyl sulfoxide (DMSO) and tested in a dilution series of 1:2.
(§5) Bacteria and yeast are cultured overnight in CASO broth, the mould is cultured overnight on mycological slant agar, and washed off using 10 ml of 0.85% sodium chloride solution (+0.1% Triton X-100).
(§6) All the test organisms are adjusted to an organism count of 1–5×10^6 CFU/ml using 0.85% sodium chloride solution.
(§7) The test substances are pre-pipetted into microtitre plates in amounts of 8 μl per well.
(§8) Pre-diluted organism suspensions are diluted 1:100 in CASO broth (bacteria and yeast) or Sabouraud 2% glucose broth (mould) and are added in amounts of 192 μl per well to the test substances.
(§9) The test batches are incubated for 48 hours at 37° C. (bacteria and yeast) or for 5 days at 28° C. (mould).
(§10) After incubation, the growth is determined on the basis of the turbidity of the test batches (optical density) at 620 nm in a microplate reader.
(§11) The minimum inhibitory concentration (MIC value) is the concentration of substance at which there is found (compared to the growth of the control) an appreciable inhibition of growth (≦20% growth) of the test organisms.
(§12) One microtitre plate is used for each test organism and substance concentration. All the substances are tested in duplicate.

[2] = system: Epidermophyton floccosum DSM 10709; test: as above; details: Table 8, * = significant inhibition of growth, but not complete inhibition; for MIC: Epidermophyton floccosum, DSM10709
Description: as §1, §2, §3, §4, §5, §6, §7, §8, §9, §10, §11, §12

[3] = system: Trichophyton mentagrophytes ATCC 9533; test: as above; details: Table 8, * = significant inhibition of growth, but not complete inhibition; for MIC: Trichophyton mentagrophytes, ATCC9533
Description: as §1, §2, §3, §4, §5, §6, §7, §8, §9, §10, §11, §12

[4] = system: S. epidermidis ATCC 12228; test: as above; details: Table 8, * = significant inhibition of growth, but not complete inhibition; for MIC: Staphylococcus epidermidis, ATCC12228
Description: as §1, §2, §3, §4, §5, §6, §7, §8, §9, §10, §11, §12

[5] = system: Staphylococcus aureus ATCC 9144; test: as above; details: Table 8, * = significant inhibition of growth, but not complete inhibition; for MIC: Staphylococcus aureus, ATCC9144
Description: as §1, §2, §3, §4, §5, §6, §7, §8, §9, §10, §11, §12

[6] = system: Micrococcus luteus ATCC 9341; test: as above; details: Table 8, * = significant inhibition of growth, but not complete inhibition; for MIC: Micrococcus luteus, ATCC9341
Description: as §1, §2, §3, §4, §5, §6, §7, §8, §9, §10, §11, §12

[7] = system: Escherichia coli NCTC 8196; test: Minimum inhibitory concentration (MIC) in microtitre plates; details: for MIC: Escherichia coli, NCTC8196
Description: as §1, §2, §3
(§13) Examples of Test Organisms:
as §4, §5, §6, §7, §8, §9, §10, §11, §12

[8] = system: Staphylococcus hominis DMS 20328; test: as above; details: Table 7, 48 hours at 37° C., MIC = ≦20% growth compared to control; for MIC: Staphylococcus hominis, DMS20328, read-out: Minimum inhibitory concentration (MIC) S. hominis
Description: as §1, §2, §3, §13, §4, §5, §6, §7, §8, §9, §10, §11, §12

[9] = Table 7, 48 hours at 37° C., MIC = ≦20% growth compared to control
[10] = Table 8, * = significant inhibition of growth, but not complete inhibition
[11] = Table 7, 48 hours at 37° C., MIC = ≦20% growth compared to control, read-out: Minimum inhibitory concentration (MIC) E. coli
[12] = Table 8, * = significant inhibition of growth, but not complete inhibition, read-out: Minimum inhibitory concentration (MIC) E. coli NCTC 8196

| Structure (SMILES) | Minimum inhibitory concentration (MIC) Enterococcus hirae ATCC 10541 [1] | Minimum inhibitory concentration (MIC) Epidermophyton floccosum DSM 10709 [2] | Minimum inhibitory concentration (MIC) Trichophyton mentagrophytes ATCC 9533 [3] | Minimum inhibitory concentration (MIC) S. epidermidis ATCC 12228 [4] | Minimum inhibitory concentration (MIC) Staphylococcus aureus ATCC 9144 [5] | Minimum inhibitory concentration (MIC) Micrococcus luteus ATCC 9341 [6] | Minimum inhibitory concentration (MIC) E. coli [7, 9] | Minimum inhibitory concentration (MIC) E. coli NCTC 8196 [7, 10] | Minimum inhibitory concentration (MIC) S. hominis [8] | MIC [1] | MIC [2] | MIC [3] | MIC [4] | MIC [5] | MIC [6] | MIC [7, 11] | MIC [7, 12] | MIC [8] |
| --- | --- | --- | --- | --- | --- | --- | --- | --- | --- | --- | --- | --- | --- | --- | --- | --- | --- | --- |
| CCCCCCCCNc1nc(-c2ccccn2)nc(C)c1CC [compound 9] | 30 µg/mL (≈ 91.9 µM) | *15 μg/mL | *30 μg/mL | *15 μg/mL | 15 µg/mL (≈ 45.9 µM) | 3.75 µg/mL (≈ 11.5 µM) | >120 µg/mL | >60 µg/mL | 7.5 µg/mL (≈ 23 µM) | – | – | – | – | – | – | – | – | – |
| CCCCCCCCCNc1nc(-c2ccccn2)nc(C)c1CC [compound 10] | 30 µg/mL (≈ 88.1 µM) | 60 µg/mL (≈ 176 µM) | 60 µg/mL (≈ 176 µM) | 15 µg/mL (≈ 44.1 µM) | 15 µg/mL (≈ 44.1 µM) | <0.5 µg/mL | >80 µg/mL | >60 µg/mL | 5 µg/mL (≈ 14.7 µM) | – | – | – | – | – | – | – | – | – |
| CCCCCCCCCCNc1nc(-c2ccccn2)nc(C)c1CC [compound 11] | 7.5 µg/mL (≈ 21.2 µM) | >60 µg/mL | >60 µg/mL | 7.5 µg/mL (≈ 21.2 µM) | 7.5 µg/mL (≈ 21.2 µM) | 1.9 µg/mL (≈ 5.36 µM) | >120 µg/mL | >60 µg/mL | 3.75 µg/mL (≈ 10.6 µM) | – | – | – | – | – | – | – | – | – |
| CCCCCCCCCCNc1cc(C)nc(-c2ccccn2)n1 [compound 23] | 3.75 µg/mL (≈ 11.5 µM) | *15 μg/mL | 15 µg/mL (≈ 45.9 µM) | 7.5 µg/mL (≈ 23 µM) | 7.5 µg/mL (≈ 23 µM) | <0.5 µg/mL | >120 µg/mL | >60 µg/mL | 3.75 µg/mL (≈ 11.5 µM) | – | – | – | – | – | – | – | – | – |
| CC(C)c1cc(NCCCCCCCCCCCCN)nc(-c2ccccn2)n1 [compound 43] | 30 µg/mL (≈ 75.5 µM) | >60 µg/mL | >60 µg/mL | *15 μg/mL | 30 µg/mL (≈ 75.5 µM) | 3.75 µg/mL (≈ 9.43 µM) | 60 µg/mL (≈ 151 µM) | >60 µg/mL | 7.5 µg/mL (≈ 18.9 µM) | – | – | – | – | – | – | – | – | – |
| CCCCCCCNc1cc(C(C)C)nc(-c2ccccn2)n1 [compound 44] | – | – | – | – | – | – | – | – | – | 15 µg/mL (≈ 48 µM) | 60 µg/mL (≈ 192 µM) | > 60 µg/mL | 15 µg/mL (≈ 48 µM) | 15 µg/mL (≈ 48 µM) | 1 µg/mL (≈ 3.2 µM) | > 120 µg/mL | > 30 µg/mL | 3.75 µg/mL (≈ 12 µM) |
| CCCCCCCCNc1cc(C(C)C)nc(-c2ccccn2)n1 [compound 45] | 3.75 µg/mL (≈ 11.5 µM) | >60 µg/mL | >60 µg/mL | 7.5 µg/mL (≈ 23 µM) | 7.5 µg/mL (≈ 23 µM) | 3.75 µg/mL (≈ 11.5 µM) | >120 µg/mL | >30 µg/mL | 3.75 µg/mL (≈ 11.5 µM) | – | – | – | – | – | – | – | – | – |
| CCCCCCCCCNc1cc(C(C)C)nc(-c2ccccn2)n1 [compound 46] | 30 µg/mL (≈ 88.1 µM) | 60 µg/mL (≈ 176 µM) | >60 µg/mL | 30 µg/mL (≈ 88.1 µM) | 30 µg/mL (≈ 88.1 µM) | 3.75 µg/mL (≈ 11 µM) | >120 µg/mL | >60 µg/mL | 3.75 µg/mL (≈ 11 µM) | – | – | – | – | – | – | – | – | – |
| CCCCCCCCCCNc1cc(C(C)C)nc(-c2ccccn2)n1 [compound 47] | – | – | – | – | – | – | – | – | – | 3.75 µg/mL (≈ 10.6 µM) | 60 µg/mL (≈ 169 µM) | 60 µg/mL (≈ 169 µM) | 3.75 µg/mL (≈ 10.6 µM) | 7.5 µg/mL (≈ 21.2 µM) | < 0.5 µg/mL | > 80 µg/mL | > 60 µg/mL | 5 µg/mL (≈ 14.1 µM) |
| CCCCCCCNc1cc(C(C)(C)C)nc(-c2ccccn2)n1 [compound 56] | 1.9 µg/mL (≈ 5.82 µM) | *30 μg/mL | *30 μg/mL | 3.75 µg/mL (≈ 11.5 µM) | 3.75 µg/mL (≈ 11.5 µM) | <0.5 µg/mL | >120 µg/mL | >60 µg/mL | 3.75 µg/mL (≈ 11.5 µM) | – | – | – | – | – | – | – | – | – |

The next lines start with the values.

| Minimum inhibitory concentration (MIC) Enterococcus hirae ATCC 10541 [1] | Minimum inhibitory concentration (MIC) Epidermophyton floccosum DSM 10709 [2] | Minimum inhibitory concentration (MIC) Trichophyton mentagrophytes ATCC 9533 [3] | Minimum inhibitory concentration (MIC) S. epidermidis ATCC 12228 [4] | Minimum inhibitory concentration (MIC) Staphylococcus aureus ATCC 9144 [5] | Minimum inhibitory concentration (MIC) Micrococcus luteus ATCC 9341 [6] | Minimum inhibitory concentration (MIC) E. coli [7, 9] | Minimum inhibitory concentration (MIC) E. coli NCTC 8196 [7, 10] | Minimum inhibitory concentration (MIC) S. hominis [8] | MIC [1] | MIC [2] | MIC [3] | MIC [4] | MIC [5] | MIC [6] | MIC [7, 11] | MIC [7, 12] | MIC [8] | Structure (SMILES) |
| --- | --- | --- | --- | --- | --- | --- | --- | --- | --- | --- | --- | --- | --- | --- | --- | --- | --- | --- |
| 7.5 µg/mL (≈ 22.2 µM) | *60 μg/mL | >60 µg/mL | 7.5 µg/mL (≈ 22.2 µM) | 15 µg/mL (≈ 44.3 µM) | >0.5 µg/mL | >120 µg/mL | >60 µg/mL | 3.75 µg/mL (≈ 11.1 µM) | – | – | – | – | – | – | – | – | – | CCCCCCCNc1cc(C(F)(F)F)nc(-c2ccccn2)n1 [compound 32] |
| 15 µg/mL (≈ 42.6 µM) | >60 µg/mL | >60 µg/mL | 3.75 µg/mL (≈ 10.6 µM) | 15 µg/mL (≈ 42.6 µM) | <0.5 µg/mL | >80 µg/mL | >60 µg/mL | 2.5 µg/mL (≈ 7.09 µM) | – | – | – | – | – | – | – | – | – | CCCCCCCCNc1cc(C(F)(F)F)nc(-c2ccccn2)n1 [compound 33] |
| 60 µg/mL (≈ 164 µM) | >60 µg/mL | >60 µg/mL | *60 μg/mL | >60 µg/mL | >0.5 µg/mL | >120 µg/mL | >60 µg/mL | 3.75 µg/mL (≈ 10.2 µM) | – | – | – | – | – | – | – | – | – | CCCCCCCCCNc1cc(C(F)(F)F)nc(-c2ccccn2)n1 [compound 34] |
| – | – | – | – | – | – | – | – | – | 7.5 µg/mL (≈ 19.7 µM) | > 60 µg/mL | > 60 µg/mL | 7.5 µg/mL (≈ 19.7 µM) | 7.5 µg/mL (≈ 19.7 µM) | < 0.5 µg/mL | > 120 µg/mL | > 60 µg/mL | 3.75 µg/mL (≈ 9.86 µM) | CCCCCCCCCCNc1cc(C(F)(F)F)nc(-c2ccccn2)n1 [compound 35] |
| – | – | – | – | – | – | – | – | – | 30 µg/mL (≈ 64.6 µM) | > 60 µg/mL | > 60 µg/mL | 7.5 µg/mL (≈ 16.1 µM) | 15 µg/mL (≈ 32.3 µM) | 1 µg/mL (≈ 2.15 µM) | > 120 µg/mL | > 30 µg/mL | > 120 µg/mL | CCCCCCCCCCCCCCCCNc1cc(C(F)(F)F)nc(-c2ccccn2)n1 [compound 37] |
